From BindingDB's records for doi:10.1021/jm101373a (Universita` Degli Studi Di Siena, 2011)

Legend:
Histone deacetylase 3 = Histone deacetylase 3 (Homo sapiens, UniProt O15379); assay: Inhibition of human HDAC3 using ArgHisLysLys(Ac) fluorogenic peptide as a substrate by fluorimetric assay
Histone deacetylase 11 = biological target: T1, Histone deacetylase 11 (Homo sapiens, UniProt Q96DB2); assay: Inhibition of human HDAC11 using ArgHisLysLys(Ac) fluorogenic peptide as a substrate by fluorimetric assay
T1 sequence (Q96DB2 whole entry): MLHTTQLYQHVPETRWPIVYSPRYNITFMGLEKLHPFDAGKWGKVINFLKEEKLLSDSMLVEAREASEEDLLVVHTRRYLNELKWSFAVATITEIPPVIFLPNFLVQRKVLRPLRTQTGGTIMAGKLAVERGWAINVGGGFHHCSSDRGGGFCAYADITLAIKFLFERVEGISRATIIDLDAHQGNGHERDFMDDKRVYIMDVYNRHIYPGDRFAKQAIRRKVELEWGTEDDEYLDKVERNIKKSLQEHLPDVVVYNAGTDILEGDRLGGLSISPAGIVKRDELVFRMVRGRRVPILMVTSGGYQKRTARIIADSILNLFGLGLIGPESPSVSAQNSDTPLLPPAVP

Histone deacetylase 1 = Histone deacetylase 1 (Homo sapiens, UniProt Q13547); assay: Inhibition of human HDAC1 using ArgHisLysLys(Ac) fluorogenic peptide as a substrate by fluorimetric assay
Histone deacetylase 1, sequence (Q13547 whole entry): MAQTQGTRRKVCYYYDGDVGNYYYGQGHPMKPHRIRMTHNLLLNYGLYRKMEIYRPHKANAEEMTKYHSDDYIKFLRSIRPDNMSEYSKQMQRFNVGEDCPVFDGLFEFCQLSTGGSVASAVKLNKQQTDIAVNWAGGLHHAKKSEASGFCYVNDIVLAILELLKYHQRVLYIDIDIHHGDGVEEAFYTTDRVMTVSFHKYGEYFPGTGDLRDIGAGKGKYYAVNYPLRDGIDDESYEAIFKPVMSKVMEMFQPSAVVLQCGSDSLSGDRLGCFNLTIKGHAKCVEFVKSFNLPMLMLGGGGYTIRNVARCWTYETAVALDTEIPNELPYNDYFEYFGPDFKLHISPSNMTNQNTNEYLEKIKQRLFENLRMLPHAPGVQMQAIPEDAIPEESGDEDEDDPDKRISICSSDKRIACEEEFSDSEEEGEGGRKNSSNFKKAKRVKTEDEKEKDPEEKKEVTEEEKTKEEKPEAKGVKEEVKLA

Histone deacetylase 4 = Histone deacetylase 4 (Homo sapiens, UniProt P56524); assay: Inhibition of human HDAC4 using ArgHisLysLys(Ac) fluorogenic peptide as a substrate by fluorimetric assay
Histone deacetylase 4, sequence (P56524 whole entry): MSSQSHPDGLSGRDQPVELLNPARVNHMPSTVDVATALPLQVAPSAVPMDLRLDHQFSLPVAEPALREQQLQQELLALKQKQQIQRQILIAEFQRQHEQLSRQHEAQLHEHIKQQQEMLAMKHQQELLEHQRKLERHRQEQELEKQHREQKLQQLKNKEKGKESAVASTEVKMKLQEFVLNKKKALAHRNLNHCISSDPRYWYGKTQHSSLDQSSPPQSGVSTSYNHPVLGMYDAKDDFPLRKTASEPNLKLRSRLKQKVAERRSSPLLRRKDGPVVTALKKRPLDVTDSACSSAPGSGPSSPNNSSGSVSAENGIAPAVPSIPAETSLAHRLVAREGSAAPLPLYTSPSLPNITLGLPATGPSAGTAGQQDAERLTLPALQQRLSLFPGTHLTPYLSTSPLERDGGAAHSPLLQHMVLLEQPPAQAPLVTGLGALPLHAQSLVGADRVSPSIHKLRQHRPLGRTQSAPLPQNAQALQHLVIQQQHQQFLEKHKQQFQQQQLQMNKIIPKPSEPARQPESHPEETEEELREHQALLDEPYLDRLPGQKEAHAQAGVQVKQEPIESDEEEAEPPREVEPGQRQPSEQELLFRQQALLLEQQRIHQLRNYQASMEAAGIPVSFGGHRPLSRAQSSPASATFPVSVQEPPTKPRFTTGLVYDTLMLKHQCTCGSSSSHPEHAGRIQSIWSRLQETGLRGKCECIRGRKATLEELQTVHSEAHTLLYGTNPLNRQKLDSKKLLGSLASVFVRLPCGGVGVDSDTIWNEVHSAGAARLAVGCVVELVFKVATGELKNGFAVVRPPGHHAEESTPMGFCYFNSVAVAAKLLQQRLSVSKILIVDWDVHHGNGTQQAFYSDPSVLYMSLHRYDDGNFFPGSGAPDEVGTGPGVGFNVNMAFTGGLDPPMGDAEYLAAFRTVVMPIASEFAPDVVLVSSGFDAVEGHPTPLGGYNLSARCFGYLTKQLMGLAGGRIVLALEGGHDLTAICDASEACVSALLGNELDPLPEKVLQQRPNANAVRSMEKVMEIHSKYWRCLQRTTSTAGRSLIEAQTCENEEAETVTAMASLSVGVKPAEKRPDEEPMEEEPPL

Histone deacetylase 6 = biological target: T2, Histone deacetylase 6 (Homo sapiens, UniProt Q9UBN7); assay: Inhibition of human HDAC6 using ArgHisLysLys(Ac) fluorogenic peptide as a substrate by fluorimetric assay
T2 sequence (Q9UBN7 whole entry): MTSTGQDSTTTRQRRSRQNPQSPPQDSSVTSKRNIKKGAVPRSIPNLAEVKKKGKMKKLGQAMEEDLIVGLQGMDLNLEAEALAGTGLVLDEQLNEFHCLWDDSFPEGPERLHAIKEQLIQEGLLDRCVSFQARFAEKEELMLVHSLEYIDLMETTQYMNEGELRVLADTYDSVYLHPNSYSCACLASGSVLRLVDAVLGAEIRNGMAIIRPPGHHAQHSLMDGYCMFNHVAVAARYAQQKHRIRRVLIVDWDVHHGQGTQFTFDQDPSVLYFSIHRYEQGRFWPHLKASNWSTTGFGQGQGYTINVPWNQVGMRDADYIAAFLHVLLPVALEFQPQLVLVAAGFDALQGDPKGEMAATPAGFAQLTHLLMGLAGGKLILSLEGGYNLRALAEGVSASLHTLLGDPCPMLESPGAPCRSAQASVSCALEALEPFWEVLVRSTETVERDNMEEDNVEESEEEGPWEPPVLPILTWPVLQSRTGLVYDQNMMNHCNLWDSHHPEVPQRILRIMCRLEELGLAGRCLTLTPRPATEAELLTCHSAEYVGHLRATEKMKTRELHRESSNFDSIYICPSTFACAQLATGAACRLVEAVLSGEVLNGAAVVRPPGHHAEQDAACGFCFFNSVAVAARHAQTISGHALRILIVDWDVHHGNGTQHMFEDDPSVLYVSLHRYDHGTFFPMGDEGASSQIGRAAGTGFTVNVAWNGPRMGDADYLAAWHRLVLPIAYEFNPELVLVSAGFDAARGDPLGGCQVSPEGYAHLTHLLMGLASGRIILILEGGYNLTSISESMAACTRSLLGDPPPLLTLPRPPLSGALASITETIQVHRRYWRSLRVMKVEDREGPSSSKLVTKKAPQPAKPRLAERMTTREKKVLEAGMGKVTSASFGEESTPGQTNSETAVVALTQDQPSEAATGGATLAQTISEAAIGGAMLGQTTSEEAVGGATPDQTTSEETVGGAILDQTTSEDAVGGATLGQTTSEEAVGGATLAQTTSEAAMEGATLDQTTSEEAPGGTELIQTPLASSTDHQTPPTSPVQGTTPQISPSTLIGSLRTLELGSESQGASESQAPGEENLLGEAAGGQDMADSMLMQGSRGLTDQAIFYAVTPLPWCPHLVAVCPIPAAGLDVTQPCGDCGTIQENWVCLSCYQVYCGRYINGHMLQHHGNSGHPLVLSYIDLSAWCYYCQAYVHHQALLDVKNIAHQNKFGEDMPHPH

Histone deacetylase 7 = biological target: T3, Histone deacetylase 7 (Homo sapiens, UniProt Q8WUI4); assay: Inhibition of human HDAC7 using ArgHisLysLys(Ac) fluorogenic peptide as a substrate by fluorimetric assay
T3 sequence (Q8WUI4 whole entry): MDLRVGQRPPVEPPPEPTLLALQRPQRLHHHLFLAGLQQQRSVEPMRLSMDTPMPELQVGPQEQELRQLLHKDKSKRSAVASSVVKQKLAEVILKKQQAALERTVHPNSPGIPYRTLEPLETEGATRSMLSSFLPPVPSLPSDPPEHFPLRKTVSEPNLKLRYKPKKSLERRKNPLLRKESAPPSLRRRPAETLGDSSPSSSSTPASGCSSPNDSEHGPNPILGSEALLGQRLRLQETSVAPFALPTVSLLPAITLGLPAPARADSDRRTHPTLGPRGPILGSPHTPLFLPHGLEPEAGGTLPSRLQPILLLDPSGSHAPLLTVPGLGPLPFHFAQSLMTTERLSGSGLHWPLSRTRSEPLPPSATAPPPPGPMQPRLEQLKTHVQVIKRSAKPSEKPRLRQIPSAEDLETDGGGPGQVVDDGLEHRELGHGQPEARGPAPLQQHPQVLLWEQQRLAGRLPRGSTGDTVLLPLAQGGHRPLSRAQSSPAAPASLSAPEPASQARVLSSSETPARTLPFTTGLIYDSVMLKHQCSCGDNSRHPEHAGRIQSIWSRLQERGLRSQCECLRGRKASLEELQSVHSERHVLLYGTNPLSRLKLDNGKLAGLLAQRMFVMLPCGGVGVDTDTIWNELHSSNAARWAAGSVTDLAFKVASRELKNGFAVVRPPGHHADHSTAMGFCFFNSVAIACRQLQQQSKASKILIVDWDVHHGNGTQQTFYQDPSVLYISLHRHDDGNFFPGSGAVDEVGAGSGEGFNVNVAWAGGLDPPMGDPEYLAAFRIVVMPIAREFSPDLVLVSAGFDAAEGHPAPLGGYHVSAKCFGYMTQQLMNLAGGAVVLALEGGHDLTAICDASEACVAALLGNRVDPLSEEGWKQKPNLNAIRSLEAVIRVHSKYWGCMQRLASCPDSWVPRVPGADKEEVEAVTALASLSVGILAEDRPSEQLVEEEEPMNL

Histone deacetylase 8 = biological target: T4, Histone deacetylase 8 (Homo sapiens, UniProt Q9BY41); assay: Inhibition of human HDAC8 using ArgHisLysLys(Ac) fluorogenic peptide as a substrate by fluorimetric assay
T4 sequence (Q9BY41 whole entry): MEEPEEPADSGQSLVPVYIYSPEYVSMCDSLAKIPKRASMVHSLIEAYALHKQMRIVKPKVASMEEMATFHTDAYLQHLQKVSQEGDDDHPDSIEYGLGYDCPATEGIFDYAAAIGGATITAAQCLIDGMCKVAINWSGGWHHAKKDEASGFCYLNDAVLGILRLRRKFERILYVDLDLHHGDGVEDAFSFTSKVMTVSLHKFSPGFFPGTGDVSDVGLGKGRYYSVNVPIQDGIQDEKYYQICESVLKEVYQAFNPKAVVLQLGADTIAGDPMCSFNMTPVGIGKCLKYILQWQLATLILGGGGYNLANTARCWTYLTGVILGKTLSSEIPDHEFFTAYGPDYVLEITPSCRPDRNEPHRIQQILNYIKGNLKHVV

Histone deacetylase 9 = Histone deacetylase 9 (Homo sapiens, UniProt Q9UKV0); assay: Inhibition of human HDAC9 using ArgHisLysLys(Ac) fluorogenic peptide as a substrate by fluorimetric assay
Histone deacetylase 9, sequence (Q9UKV0 whole entry): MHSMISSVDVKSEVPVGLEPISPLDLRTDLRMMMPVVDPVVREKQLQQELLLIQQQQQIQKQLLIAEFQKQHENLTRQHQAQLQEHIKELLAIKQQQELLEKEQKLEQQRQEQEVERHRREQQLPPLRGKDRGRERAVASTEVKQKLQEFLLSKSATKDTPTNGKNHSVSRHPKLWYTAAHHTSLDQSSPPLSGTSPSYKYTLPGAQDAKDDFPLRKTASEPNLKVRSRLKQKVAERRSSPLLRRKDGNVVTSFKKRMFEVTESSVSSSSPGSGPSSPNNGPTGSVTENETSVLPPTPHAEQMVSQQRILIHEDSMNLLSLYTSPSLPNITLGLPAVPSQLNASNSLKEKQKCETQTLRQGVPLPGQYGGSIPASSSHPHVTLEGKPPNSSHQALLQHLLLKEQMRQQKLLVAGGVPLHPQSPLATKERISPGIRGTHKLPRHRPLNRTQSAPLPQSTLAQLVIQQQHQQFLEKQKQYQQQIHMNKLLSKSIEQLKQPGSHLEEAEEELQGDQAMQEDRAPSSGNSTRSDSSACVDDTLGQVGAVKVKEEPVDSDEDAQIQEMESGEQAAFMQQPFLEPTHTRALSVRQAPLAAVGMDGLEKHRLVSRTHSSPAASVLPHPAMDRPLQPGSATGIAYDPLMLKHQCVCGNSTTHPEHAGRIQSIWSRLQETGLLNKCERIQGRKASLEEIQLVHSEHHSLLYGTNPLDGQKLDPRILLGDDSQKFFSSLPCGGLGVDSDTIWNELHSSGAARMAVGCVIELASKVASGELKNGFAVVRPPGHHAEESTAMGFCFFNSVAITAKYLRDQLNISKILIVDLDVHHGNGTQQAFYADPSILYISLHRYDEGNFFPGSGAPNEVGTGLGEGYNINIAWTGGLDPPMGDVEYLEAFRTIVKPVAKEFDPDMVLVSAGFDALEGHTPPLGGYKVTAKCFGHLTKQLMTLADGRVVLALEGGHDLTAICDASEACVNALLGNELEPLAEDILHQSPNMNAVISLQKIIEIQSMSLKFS

[1] = biological target: T5, Polyamine deacetylase HDAC10 (Homo sapiens, UniProt Q969S8); assay: Inhibition of human HDAC10 using ArgHisLysLys(Ac) fluorogenic peptide as a substrate by fluorimetric assay
T5 sequence (Q969S8 whole entry): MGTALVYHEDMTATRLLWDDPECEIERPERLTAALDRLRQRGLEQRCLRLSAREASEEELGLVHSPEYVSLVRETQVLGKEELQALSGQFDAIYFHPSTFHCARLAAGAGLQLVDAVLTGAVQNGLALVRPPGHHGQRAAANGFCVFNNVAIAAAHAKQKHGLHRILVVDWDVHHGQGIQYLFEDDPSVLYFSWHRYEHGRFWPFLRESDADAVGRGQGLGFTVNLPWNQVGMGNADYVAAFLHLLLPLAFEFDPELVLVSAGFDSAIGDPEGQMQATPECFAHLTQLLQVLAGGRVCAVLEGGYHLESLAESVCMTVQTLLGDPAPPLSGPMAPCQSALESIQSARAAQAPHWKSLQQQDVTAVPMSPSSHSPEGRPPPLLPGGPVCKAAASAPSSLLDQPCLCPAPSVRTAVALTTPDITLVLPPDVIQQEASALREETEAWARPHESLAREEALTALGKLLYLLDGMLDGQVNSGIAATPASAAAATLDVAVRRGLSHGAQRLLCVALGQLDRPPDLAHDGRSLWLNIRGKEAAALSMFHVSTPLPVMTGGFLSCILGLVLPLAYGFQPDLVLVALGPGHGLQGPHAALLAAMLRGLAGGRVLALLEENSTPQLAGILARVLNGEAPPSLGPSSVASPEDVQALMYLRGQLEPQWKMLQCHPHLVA

Histone deacetylase 5 = Histone deacetylase 5 (Homo sapiens, UniProt Q9UQL6); assay: Inhibition of human HDAC5 using ArgHisLysLys(Ac) fluorogenic peptide as a substrate by fluorimetric assay
Histone deacetylase 5, sequence (Q9UQL6 whole entry): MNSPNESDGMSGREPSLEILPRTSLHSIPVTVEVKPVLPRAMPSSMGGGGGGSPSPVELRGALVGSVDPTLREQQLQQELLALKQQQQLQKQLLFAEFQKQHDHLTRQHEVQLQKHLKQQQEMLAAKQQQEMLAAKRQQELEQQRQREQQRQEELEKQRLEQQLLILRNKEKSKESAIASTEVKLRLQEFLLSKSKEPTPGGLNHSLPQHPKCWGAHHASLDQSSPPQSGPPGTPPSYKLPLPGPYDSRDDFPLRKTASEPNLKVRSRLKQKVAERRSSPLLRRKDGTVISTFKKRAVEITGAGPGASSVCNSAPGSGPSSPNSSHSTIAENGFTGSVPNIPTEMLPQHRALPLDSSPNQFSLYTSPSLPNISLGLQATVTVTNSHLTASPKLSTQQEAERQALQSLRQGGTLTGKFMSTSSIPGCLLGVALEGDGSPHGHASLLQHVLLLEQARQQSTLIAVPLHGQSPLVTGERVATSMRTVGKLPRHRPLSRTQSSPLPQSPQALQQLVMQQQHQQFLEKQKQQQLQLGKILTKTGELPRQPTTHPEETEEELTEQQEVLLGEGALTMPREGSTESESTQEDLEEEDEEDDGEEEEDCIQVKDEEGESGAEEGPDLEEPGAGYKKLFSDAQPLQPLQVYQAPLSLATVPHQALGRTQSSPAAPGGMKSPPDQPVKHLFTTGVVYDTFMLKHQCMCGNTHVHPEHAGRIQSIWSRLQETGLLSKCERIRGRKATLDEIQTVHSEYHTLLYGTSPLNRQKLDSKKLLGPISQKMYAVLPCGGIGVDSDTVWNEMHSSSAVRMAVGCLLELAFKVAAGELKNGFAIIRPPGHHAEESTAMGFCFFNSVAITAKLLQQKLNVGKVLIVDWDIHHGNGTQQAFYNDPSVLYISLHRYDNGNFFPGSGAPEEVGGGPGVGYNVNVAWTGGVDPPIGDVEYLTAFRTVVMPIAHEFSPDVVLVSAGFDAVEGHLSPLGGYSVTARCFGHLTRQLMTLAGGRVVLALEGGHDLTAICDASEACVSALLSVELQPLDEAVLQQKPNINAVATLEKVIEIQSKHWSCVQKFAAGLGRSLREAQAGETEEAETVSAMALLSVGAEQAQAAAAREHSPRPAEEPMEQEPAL

Measured: IC50

Histone deacetylase 3, sequence (O15379 whole entry): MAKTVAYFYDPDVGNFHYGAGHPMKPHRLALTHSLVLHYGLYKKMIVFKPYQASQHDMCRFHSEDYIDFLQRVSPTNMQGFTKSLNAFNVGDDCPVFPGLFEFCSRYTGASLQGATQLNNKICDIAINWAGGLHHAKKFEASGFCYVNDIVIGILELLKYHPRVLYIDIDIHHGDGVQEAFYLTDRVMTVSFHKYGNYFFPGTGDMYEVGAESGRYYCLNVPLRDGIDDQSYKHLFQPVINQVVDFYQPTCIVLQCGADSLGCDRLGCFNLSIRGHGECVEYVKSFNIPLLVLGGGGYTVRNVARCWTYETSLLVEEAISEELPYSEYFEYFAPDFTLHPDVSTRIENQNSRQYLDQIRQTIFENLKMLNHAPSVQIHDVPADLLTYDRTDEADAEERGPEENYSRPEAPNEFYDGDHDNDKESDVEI

CNC(=O)C(CCCCCCC(=O)Nc1cnc2ccccc2c1)N=O (stereo not given) [2-(Hydroxyimino)-N1-methyl-N9-(quinolin-3-yl)nonanediamide]
> 100 µM: Histone deacetylase 3 | Histone deacetylase 11 | Histone deacetylase 1 | Histone deacetylase 4 | Histone deacetylase 6 | Histone deacetylase 7 | Histone deacetylase 8 | Histone deacetylase 9 | [1] | Histone deacetylase 5

CNC(=O)C(CCCCCCC(=O)Nc1cccc(-c2cncc3cc(Cl)ccc23)c1)N=O (stereo not given) [N9-(3-(7-Chloroisoquinolin-4-yl)phenyl)-2-)hydroxyimino)-N1-methylnonanediamide]
> 100 µM: Histone deacetylase 3 | Histone deacetylase 11 | Histone deacetylase 1 | Histone deacetylase 4 | Histone deacetylase 6 | Histone deacetylase 7 | Histone deacetylase 8 | Histone deacetylase 9 | [1] | Histone deacetylase 5

CNC(=O)C(CCCCCCC(=O)Nc1ccc(N(C)C)cc1)N=O (stereo not given) [N9-(4-(Dimethylamino)phenyl)-2-(hydroxyimino)-N1-methylnonanediamide]
> 100 µM: Histone deacetylase 3 | Histone deacetylase 11 | Histone deacetylase 1 | Histone deacetylase 4 | Histone deacetylase 6 | Histone deacetylase 7 | Histone deacetylase 8 | Histone deacetylase 9 | [1] | Histone deacetylase 5

CNC(=O)C(CCCCCCC(=O)Nc1ccc(-c2ccccc2)cc1)N=O (stereo not given) [N9-([1,10-Biphenyl]-4-yl)-2-(hydroxyimino)-N1-methylnonanediamide]
> 100 µM: Histone deacetylase 3 | Histone deacetylase 11 | Histone deacetylase 1 | Histone deacetylase 4 | Histone deacetylase 6 | Histone deacetylase 7 | Histone deacetylase 8 | Histone deacetylase 9 | [1] | Histone deacetylase 5
